Assay results taken from US10457677B2 (priority 2015, dated 2019).
pIC50: −log10 of the molar value. Read-outs that look alike come from different tables or passages of the source.

Assays:
[1] = tested on: phosphorylation of CHK2 (phospho-Thr68) in HCT116 cells; assay: Cellular pCHK2 assay: bleomycin-induced phosphorylation of CHK2 (phospho-Thr68), immunofluorescence high-content analysis; assay type: cell-based, human; conditions: Homo sapiens, HCT-116, 4 h, read-out: IC50 (pCHK2)
Excerpt: For the identification of substances which inhibit the phosphorylation of the protein kinase CHK2 at the amino acid threonine 68, an immunofluorescence-based “high content” analysis assay was used in HCT116 cells.
In vitro cell-based immunofluorescence assay for the identification of inhibitors of bleomycin-induced phosphorylation of CHK2 (phospho-Thr68) in the human colon carcinoma cell line HCT116:
HCT116 cells are sown out in a defined cell density in 384-well plates in culture medium (DMEM high glucose, 2 mM GlutaMax, 1 mM Na pyruvate, 10% FCS) and incubated overnight at 37° C. and 10% of CO2. On the following day, the test substances are added in a defined concentration range (1 nM to 30 μM) in combination with 10 μM bleomycin, where the concentration of the solvent DMSO is kept constant at 0.5%. […] Parallel staining of DNA with propidium iodide enables determination of the cell count. The pCHK2 signal is detected using a high-content imager (Molecular Devices IMX Ultra) and automatic image analysis using the MetaXpress software belonging to the instrument. The number of cell nuclei which have a pCHK2 signal above a defined background is determined.

[2] = biological target: PI3K (p120γ) (human) (Homo sapiens (Human), UniProt P48736); assay: PI3K (p120γ) (human), non-radioactive assay (HTRF); assay type: biochemical; conditions: for ratio IC50 (ATM) vs PI3Kgamma, selectivity with respect to PI3Kgamma: as printed:; for pIC50: read-out: IC50 (PI3Kgamma)
PI3K (p120γ) (human), sequence (P48736 whole entry): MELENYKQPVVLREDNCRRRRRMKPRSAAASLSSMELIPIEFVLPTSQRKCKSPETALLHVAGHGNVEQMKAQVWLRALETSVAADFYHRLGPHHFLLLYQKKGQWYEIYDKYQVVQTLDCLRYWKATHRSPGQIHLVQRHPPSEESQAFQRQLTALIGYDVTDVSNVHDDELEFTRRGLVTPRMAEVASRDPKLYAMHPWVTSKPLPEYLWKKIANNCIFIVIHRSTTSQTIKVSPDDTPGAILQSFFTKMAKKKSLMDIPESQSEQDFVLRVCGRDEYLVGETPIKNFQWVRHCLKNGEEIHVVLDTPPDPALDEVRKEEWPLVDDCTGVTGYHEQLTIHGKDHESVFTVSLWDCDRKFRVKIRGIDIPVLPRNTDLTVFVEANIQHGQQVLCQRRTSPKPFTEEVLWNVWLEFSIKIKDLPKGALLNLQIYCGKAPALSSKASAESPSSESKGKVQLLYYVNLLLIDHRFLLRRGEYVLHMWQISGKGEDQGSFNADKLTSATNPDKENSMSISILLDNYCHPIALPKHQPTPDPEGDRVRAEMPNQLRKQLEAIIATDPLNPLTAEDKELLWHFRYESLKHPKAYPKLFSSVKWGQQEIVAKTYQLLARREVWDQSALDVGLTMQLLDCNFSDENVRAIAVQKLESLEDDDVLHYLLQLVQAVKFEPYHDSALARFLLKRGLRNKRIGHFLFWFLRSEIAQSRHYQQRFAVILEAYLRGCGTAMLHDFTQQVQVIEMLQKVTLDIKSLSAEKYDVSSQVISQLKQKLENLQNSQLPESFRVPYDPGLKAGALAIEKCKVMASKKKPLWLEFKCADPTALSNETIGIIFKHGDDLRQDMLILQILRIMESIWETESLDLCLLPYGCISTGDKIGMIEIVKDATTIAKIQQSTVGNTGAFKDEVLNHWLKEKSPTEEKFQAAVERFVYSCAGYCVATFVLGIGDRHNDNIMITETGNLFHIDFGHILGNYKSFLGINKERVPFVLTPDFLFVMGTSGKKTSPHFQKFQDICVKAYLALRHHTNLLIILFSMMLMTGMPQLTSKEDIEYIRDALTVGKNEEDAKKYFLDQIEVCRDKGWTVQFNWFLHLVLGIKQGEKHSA
Protocol: PI3K (p120γ) (Human), Non-radioactive Assay
PI3K (p120γ) (human) was incubated in an assay buffer comprising 10 μM phosphati-dylinositol 4,5-bisphosphate and MgATP (concentration as necessary). The reaction was initiated by addition of MgATP solution. After an incubation time of 30 min at room temperature, the reaction was stopped by addition of a solution consisting of EDTA and biotinylated phosphatidylinositol 3,4,5-trisphosphate. Finally, the detection buffer, consisting of a europium-labelled anti-GST monoclonal antibody, a GST-labelled GRP1 PH domain and streptavidin allophycocyanin, was added. The plate was read out via homogeneous time-resolved fluorescence (HTRF) and the corresponding signals were evaluated via the formula HTRF=10000×(Em665nm/Em620nm). • MgATP=magnesium 5′-O—[hydroxy({[(hydroxyphosphinato)oxy]phosphinato}oxy)phosphoryl]adenosine • MgCl2=magnesium dichloride • EGTA=ethylene glycol bis(aminoethyl ether) N,N,N′,N′-tetraacetic acid • Tween 20=polysorbate 20 Medicament/pharmaceutical Composition

[3] = biological target: purified human recombinant ATM (ataxia telangiectasia mutated), full length (Homo sapiens (Human), UniProt Q13315); assay: ATM kinase assay - determination of ATM inhibition (IC50 ATM), TR-FRET; assay type: biochemical
Method in brief: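 Full-length enzyme, expressed in a mammalian cell line, pre-incubated 15 min with inhibitor in 25 mM HEPES pH 8.0, 10 mM Mg(CH3COO)2, 1 mM MnCl2, 0,1% BSA, 0,01% Brij 35, 5 mM DTT. Full-length cmyc-p53 (Sf21-expressed) and ATP then added, 30-35 min at 22° C. EDTA stop; p53 S15 phosphorylation read by TR-FRET antibodies.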

[4] = biological target: PI3K p110α/p85α (human) (Homo sapiens (Human), UniProt P42336); assay: PI3K p110α/p85α (human), non-radioactive assay (HTRF); assay type: biochemical; conditions: for ratio IC50 (ATM) vs PI3Kalpha, selectivity with respect to PI3Kalpha: as printed:; for pIC50: read-out: IC50 (PI3Kalpha)
PI3K p110α/p85α (human), sequence (P42336 whole entry): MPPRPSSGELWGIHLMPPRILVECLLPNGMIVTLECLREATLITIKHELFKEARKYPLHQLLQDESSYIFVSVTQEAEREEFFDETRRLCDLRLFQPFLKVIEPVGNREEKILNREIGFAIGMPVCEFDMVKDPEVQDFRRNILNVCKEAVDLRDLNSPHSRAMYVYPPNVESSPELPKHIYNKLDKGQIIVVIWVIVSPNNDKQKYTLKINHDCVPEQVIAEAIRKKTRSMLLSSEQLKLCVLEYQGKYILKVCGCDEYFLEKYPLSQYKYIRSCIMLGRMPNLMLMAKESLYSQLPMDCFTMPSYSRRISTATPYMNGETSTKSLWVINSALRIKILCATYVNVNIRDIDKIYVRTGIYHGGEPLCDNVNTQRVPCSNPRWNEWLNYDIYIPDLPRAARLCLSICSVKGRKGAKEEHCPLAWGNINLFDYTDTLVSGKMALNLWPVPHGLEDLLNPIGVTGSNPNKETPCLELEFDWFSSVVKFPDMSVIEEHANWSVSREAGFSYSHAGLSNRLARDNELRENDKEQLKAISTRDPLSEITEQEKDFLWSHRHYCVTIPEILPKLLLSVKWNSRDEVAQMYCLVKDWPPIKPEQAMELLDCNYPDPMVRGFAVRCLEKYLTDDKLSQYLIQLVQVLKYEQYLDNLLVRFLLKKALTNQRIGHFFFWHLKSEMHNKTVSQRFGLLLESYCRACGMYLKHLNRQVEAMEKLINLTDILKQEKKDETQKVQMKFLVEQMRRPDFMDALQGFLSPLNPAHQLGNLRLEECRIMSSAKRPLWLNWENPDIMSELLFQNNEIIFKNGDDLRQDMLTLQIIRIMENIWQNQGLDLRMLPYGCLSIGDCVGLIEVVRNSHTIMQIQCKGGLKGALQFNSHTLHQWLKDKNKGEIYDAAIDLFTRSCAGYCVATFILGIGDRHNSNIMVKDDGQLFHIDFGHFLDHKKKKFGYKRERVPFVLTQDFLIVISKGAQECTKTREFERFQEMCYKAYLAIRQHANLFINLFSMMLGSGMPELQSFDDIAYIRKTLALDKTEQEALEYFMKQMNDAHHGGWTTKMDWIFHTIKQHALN
PI3K p110α/p85α (human), sequence (P27986 whole entry partner): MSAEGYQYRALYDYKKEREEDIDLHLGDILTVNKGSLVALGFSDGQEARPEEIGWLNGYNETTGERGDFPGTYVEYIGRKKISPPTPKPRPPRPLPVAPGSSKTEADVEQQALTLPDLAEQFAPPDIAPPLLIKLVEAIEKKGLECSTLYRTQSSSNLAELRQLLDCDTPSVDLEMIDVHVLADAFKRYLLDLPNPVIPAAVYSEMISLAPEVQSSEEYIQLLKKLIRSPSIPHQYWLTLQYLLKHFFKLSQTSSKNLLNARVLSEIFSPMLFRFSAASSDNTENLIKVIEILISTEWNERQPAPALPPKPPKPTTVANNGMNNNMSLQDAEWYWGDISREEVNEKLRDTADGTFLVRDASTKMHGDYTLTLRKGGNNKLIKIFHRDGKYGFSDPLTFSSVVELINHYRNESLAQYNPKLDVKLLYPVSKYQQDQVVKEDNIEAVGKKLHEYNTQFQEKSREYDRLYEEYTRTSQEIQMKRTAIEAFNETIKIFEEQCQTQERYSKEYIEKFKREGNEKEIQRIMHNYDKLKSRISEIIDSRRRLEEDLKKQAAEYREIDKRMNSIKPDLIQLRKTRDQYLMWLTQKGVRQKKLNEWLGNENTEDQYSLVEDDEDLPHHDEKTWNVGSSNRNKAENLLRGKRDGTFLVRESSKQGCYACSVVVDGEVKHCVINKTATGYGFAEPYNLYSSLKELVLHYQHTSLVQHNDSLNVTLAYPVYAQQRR
Protocol: PI3K p110α/p85α (Human), Non-radioactive Assay
(§1) PI3K p110α/p85α (human) was incubated in an assay buffer comprising 10 μM phosphati-dylinositol 4,5-bisphosphate and MgATP (concentration as necessary). The reaction was initiated by addition of MgATP solution. After incubation at room temperature for 40 minutes, the reaction was stopped by addition of a solution consisting of EDTA and biotinylated phosphatidylinositol 3,4,5-trisphosphate. Finally, the detection buffer, consisting of a europium-labelled anti-GST monoclonal antibody, a GST-labelled GRP1 PH domain and streptavidin allophycocyanin, was added. The plate was read out via homogeneous time-resolved fluorescence (HTRF) and the corresponding signals were evaluated via the formula HTRF=10000×(Em665nm/Em620nm).

[5] = biological target: PI3K p110δ/p85α (human) (Homo sapiens (Human), UniProt O00329); assay: PI3K p110δ/p85α (human), non-radioactive assay (HTRF); assay type: biochemical; conditions: for ratio IC50 (ATM) vs PI3Kdelta, selectivity with respect to PI3Kdelta: as printed:; for pIC50: read-out: IC50 (PI3Kdelta)
PI3K p110δ/p85α (human), sequence (O00329 whole entry): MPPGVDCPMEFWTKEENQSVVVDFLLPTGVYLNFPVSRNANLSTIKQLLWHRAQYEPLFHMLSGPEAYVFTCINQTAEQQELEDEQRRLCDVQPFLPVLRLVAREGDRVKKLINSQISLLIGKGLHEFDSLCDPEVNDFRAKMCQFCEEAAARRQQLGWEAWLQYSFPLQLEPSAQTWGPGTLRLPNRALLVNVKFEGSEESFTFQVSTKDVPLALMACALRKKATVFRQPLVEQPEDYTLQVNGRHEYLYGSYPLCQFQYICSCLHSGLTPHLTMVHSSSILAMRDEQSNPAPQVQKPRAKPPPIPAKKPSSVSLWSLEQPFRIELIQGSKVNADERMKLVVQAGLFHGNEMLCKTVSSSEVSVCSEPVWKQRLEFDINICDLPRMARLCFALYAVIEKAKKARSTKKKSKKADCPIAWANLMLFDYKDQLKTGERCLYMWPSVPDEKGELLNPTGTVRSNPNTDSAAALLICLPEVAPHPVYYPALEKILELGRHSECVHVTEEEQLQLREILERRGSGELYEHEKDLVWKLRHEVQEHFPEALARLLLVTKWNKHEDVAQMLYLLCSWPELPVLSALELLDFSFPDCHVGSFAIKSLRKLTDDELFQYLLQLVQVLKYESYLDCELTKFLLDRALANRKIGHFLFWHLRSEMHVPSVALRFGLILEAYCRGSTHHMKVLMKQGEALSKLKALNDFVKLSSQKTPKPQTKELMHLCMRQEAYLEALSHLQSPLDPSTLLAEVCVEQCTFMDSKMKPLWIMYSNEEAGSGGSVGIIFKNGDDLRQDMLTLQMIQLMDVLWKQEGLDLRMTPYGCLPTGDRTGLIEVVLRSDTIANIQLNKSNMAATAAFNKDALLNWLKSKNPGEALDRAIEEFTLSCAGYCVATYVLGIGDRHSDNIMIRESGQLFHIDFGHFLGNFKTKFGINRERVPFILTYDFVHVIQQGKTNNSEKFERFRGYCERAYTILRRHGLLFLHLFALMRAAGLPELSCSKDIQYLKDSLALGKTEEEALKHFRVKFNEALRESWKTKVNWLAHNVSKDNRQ
PI3K p110δ/p85α (human), sequence (P27986 whole entry partner): as the sequence (P27986 whole entry partner) above
Protocol: PI3K p110δ/p85α (Human), Non-radioactive Assay
as §1, with “p110δ/p85α” for “p110α/p85α”, “After an” for “After”, “incubation time of 30 min” for “incubation”, “temperature,” for “temperature for 40 minutes,”

[6] = biological target: mTOR (human) (Homo sapiens (Human), UniProt P42345); assay: mTOR (human) kinase assay, [γ-33P-ATP] filter assay; assay type: biochemical
Protocol: Furthermore, the effect, in particular inhibition, of other kinases and thus the selectivity of the compounds according to the invention can be determined with the aid of the following assay:
mTOR (human) was incubated with 50 mM HEPES pH 7.5, 1 mM EGTA, 0.01% Tween 20, 2 mg/ml of the substrate, 3 mM MnCl2 and [γ-^33P-ATP] (specific activity approximately 500 cpm/pmol, concentration as necessary). The reaction was initiated by addition of MgATP solution. After incubation at room temperature for 40 minutes, the reaction was stopped by addition of 3% phosphoric acid. 10 μl of the reaction solution were then transferred dropwise onto a P30 filtermat and washed three times for 5 min in 75 mM phosphoric acid and once in methanol, dried and evaluated by means of liquid scintillation counting.

SMILES	pIC50 [1]	ratio IC50 (ATM) vs PI3Kgamma, selectivity with respect to PI3Kgamma [2]	pIC50 ([3]; 10 μM ATP, substrate p53)	ratio IC50 (ATM) vs PI3Kalpha, selectivity with respect to PI3Kalpha [4]	ratio IC50 (ATM) vs PI3Kdelta, selectivity with respect to PI3Kdelta [5]	pIC50 [2]	pIC50 [3]	pIC50 [4]	pIC50 [6]	pIC50 [5]
COc1cc2ncc3c(c2cc1-c1cnn(C)c1)n(-c1ncc(OC2CNC2)cc1F)c(=O)n3C [compound 205, 1-[5-(Azetidin-3-yloxy)-3-fluoropyridin-2-yl]-7-methoxy-3-methyl-8-(1-methyl-1H-pyrazol-4-yl)-1,3-dihydroimidazo[4,5-c]-quinolin-2-one]	6.00 to 6.70	at least 2000 times	> 9.00	at least 2000 times	at least 2000 times					
COc1cc2ncc3c(c2cc1-c1cnn(C)c1)n(-c1c(F)cncc1F)c(=O)n3C [Compound Example 22, 1-(3,5-Difluoropyridin-4-yl)-7-methoxy-3-methyl-8-(1-methyl-1H-pyrazol-4-yl)-1,3-dihydroimidazo[4,5-c] quinolin-2-one]	> 6.70		> 9.00			< 4.52	> 9.00	< 4.52	< 4.52	< 4.52
CCc1cncc(F)c1-n1c(=O)n(C)c2cnc3cc(OC)c(-c4cn(C)nn4)cc3c21 [compound 126, 1-(3-Ethyl-5-fluoropyridin-4-yl)-7-methoxy-3-methyl-8-(1-methyl-1H-1,2,3-triazol-4-yl)-1,3-dihydroimidazo-[4,5-c] quinolin-2-one]	6.00 to 6.70	at least 2000 times	> 8.00	at least 2000 times	at least 2000 times					
COc1cc2ncc3c(c2cc1-c1cn[nH]c1)n(-c1ccncc1C)c(=O)n3C [Compound Example 19, 7-Methoxy-3-methyl-1-(3-methylpyridin-4-yl)-8-(1H-pyrazol-4-yl)-1,3-dihydro-imidazo[4,5-c]quinolin-2-one]	> 6.70		> 8.00			< 4.52	> 8.00	< 4.52	< 5.30	< 4.52
CCc1cncc(C)c1-n1c(=O)n(C)c2cnc3cc(OC)c(-c4cnn(CC)c4)cc3c21 [compound 61, 1-(3-Ethyl-5-methylpyridin-4-yl)-8-(1-ethyl-1H-pyrazol-4-yl)-7-methoxy-3-methyl-1,3-dihydroimidazo[4,5-c] quinolin-2-one]	5.70 to 6.00		> 8.00				> 8.00	< 4.52	< 4.52	< 4.52
COc1cnc(-n2c(=O)n(C)c3cnc4cc(OC)c(-c5c[nH]nc5C)cc4c32)c(F)c1 [compound 122, 1-(3-Fluoro-5-methoxy-pyridin-2-yl)-7-methoxy-3-methyl-8-(3-methyl-1H-pyrazol-4-yl)-1,3-dihydro-imidazo[4,5-c] quinolin-2-one]	> 6.70	at least 2000 times	> 9.00	at least 2000 times	at least 2000 times					
